# Experimental data from ChEMBL document CHEMBL4396865, “Current advances of triazole alcohols derived from fluconazole: Design, in vitro and in silico studies” (2019).
# Legend:
# Type in all cases: functional
# Candida albicans [1] = test: Antifungal activity against Candida albicans; details: Candida albicans; for MIC: read-out: MIC
# Candida albicans [2] = test: Antifungal activity against Candida albicans infected in Caenorhabditis elegans assessed as survival at 16 ug/ml relative to control
# Candida parapsilosis [3] = test: Antifungal activity against Candida parapsilosis; details: Lodderomyces parapsilosis
# Candida albicans [4] = test: Potency index, ratio of fluconazole MIC to test compound MIC for Candida albicans
# Aspergillus fumigatus = test: Antifungal activity against Aspergillus fumigatus; details: Aspergillus fumigatus
# Candida tropicalis = test: Antifungal activity against Candida tropicalis; details: Candida tropicalis
# Cryptococcus neoformans = test: Antifungal activity against Cryptococcus neoformans; details: Cryptococcus neoformans
# Candida albicans [5] = test: Antifungal activity against Candida albicans ATCC 76615 after 24 hrs by microbroth dilution method; details: ATCC 76615, 24 h
# Trichophyton rubrum [6] = test: Antifungal activity against Trichophyton rubrum; details: Trichophyton rubrum
# Kluyveromyces marxianus = test: Antifungal activity against Candida kefyr; details: Kluyveromyces marxianus
# Trichophyton rubrum [7] = test: Potency index, ratio of fluconazole MIC80 to test compound MIC80 for Trichophyton rubrum
# Nannizzia gypsea = test: Potency index, ratio of fluconazole MIC80 to test compound MIC80 for Microsporum gypseum
# Pichia norvegensis = test: Antifungal activity against Candida mycoderma
# Candida parapsilosis [8] = test: Antifungal activity against Candida parapsilosis after 48 hrs by NCCLS protocol based method; details: Lodderomyces parapsilosis
# Candida albicans [9] = test: Antifungal activity against Candida albicans after 48 hrs by NCCLS protocol based method
SMILES,MIC80 (Candida albicans [1]),MIC80 (Candida parapsilosis [3]),Ratio (Candida albicans [4]),MIC80 (Aspergillus fumigatus),MIC80 (Candida tropicalis),MIC80 (Cryptococcus neoformans),MIC80 (Candida albicans [5]),MIC80 (Trichophyton rubrum [6]),MIC80 (Kluyveromyces marxianus),MIC (Candida parapsilosis [8]),MIC (Candida albicans [9]),also measured
OC(Cn1cncn1)(Cn1cc(C2CC2)nn1)c1ccc(F)cc1F (stereo unspecified),,,,,,,,,,,,MIC (Candida albicans [1]): 0.125 µg/mL; survival at 16 µg/mL (Candida albicans [2]): 70%
N#Cc1ccc(COC2CCN(CC(O)(Cn3cncn3)c3ccc(F)cc3F)CC2)cc1 (stereo unspecified),0.01 µM,0.01 to 2.33 µM,82,0.55 to 2.33 µM,0.01 to 2.33 µM,0.01 to 2.33 µM,0.01 to 2.33 µM,0.03 to 0.15 µM,0.01 to 2.33 µM,,,
OC(CN1CCN(Cc2cn(Cc3ccc(Br)cc3)nn2)CC1)(Cn1cncn1)c1ccc(F)cc1F (stereo unspecified),≤ 0.5 µg/mL,≤ 0.5 µg/mL,,,,≤ 0.5 µg/mL,,,,,,Ratio (Trichophyton rubrum [7]): 4 - 128; Ratio (Nannizzia gypsea): 4 - 128
OC(CN1CCC(OCc2ccccc2)CC1)(Cn1cncn1)c1ccc(F)cc1F (stereo unspecified),0.01 to 0.56 µM,0.01 to 0.56 µM,82,0.01 to 0.56 µM,0.01 to 0.56 µM,0.01 to 0.56 µM,0.01 to 0.56 µM,0.01 to 0.56 µM,0.01 to 0.56 µM,,,
O=C(O)c1cn(C2CC2)c2c(Cl)c(N3CCC(NCC(O)(Cn4cncn4)c4ccc(F)cc4F)C3)c(F)cc2c1=O (stereo unspecified),,,,,,,,,,,,MIC (Candida albicans [1]): 0.25 to 2 µg/mL; MIC (Pichia norvegensis): 0.25 to 2 µg/mL
C[C@H](CCCn1cc(CC(O)(Cn2cncn2)c2ccc(F)cc2F)nn1)[C@H]1CC[C@H]2[C@@H]3CC[C@@H]4C[C@H](O)CC[C@]4(C)[C@H]3C[C@H](O)[C@]12C (stereo partly specified),,,,,,,,,,3.12 to 6.25 µg/mL,3.12 to 6.25 µg/mL,
OC(CN1CCC(OCc2cccc(Br)c2)CC1)(Cn1cncn1)c1ccc(F)cc1F (stereo unspecified),0.01 to 0.56 µM,0.01 to 0.56 µM,82,0.01 to 0.56 µM,0.01 to 0.56 µM,0.01 to 0.56 µM,0.01 to 0.56 µM,0.01 to 0.56 µM,0.01 to 0.56 µM,,,
COC(=O)CC[C@@H](C)[C@H]1CC[C@H]2[C@@H]3[C@H](O)C[C@@H]4C[C@@H](n5cc(CC(O)(Cn6cncn6)c6ccc(F)cc6F)nn5)CC[C@]4(C)[C@H]3C[C@H](O)[C@]12C (stereo partly specified),,,,,,,,,,3.12 to 6.25 µg/mL,3.12 to 6.25 µg/mL,
COC(=O)CC[C@@H](C)[C@H]1CC[C@H]2[C@@H]3CC[C@@H]4C[C@@H](n5cc(CC(O)(Cn6cncn6)c6ccc(F)cc6F)nn5)CC[C@]4(C)[C@H]3C[C@H](O)[C@]12C (stereo partly specified),,,,,,,,,,3.12 to 6.25 µg/mL,3.12 to 6.25 µg/mL,
OC(CN1CCC(OCc2ccc(Cl)c(Cl)c2)CC1)(Cn1cncn1)c1ccc(F)cc1F (stereo unspecified),0.01 µM,0.01 to 2.33 µM,82,0.55 to 2.33 µM,0.01 to 2.33 µM,0.01 to 2.33 µM,0.01 to 2.33 µM,0.03 to 0.15 µM,0.01 to 2.33 µM,,,
